Data: patent US5766624A, “Liposomal defensins” (The Liposme Company, Inc., priority 1995, dated 1998)
Where no end group is shown, it is not given here.

Assays:
protein kinase C = settings: Charp et al., Biochem. Pharmacol. 37(5):951 (1988); cited from earlier work
[1] = Leakage of CAT1 probe from DSPC/Chol liposomes (ESR); settings: for % Probe in Supernatant: CAT1, 23 deg. C
Experimental: A solution of DSPC (60 mg) and cholesterol (20 mg) was dried by rotary evaporation; the dried lipids were then rehydrated with 2 ml of buffer (10 mM HEPES, 150 mM NaCl), containing 0.5 mM of the probe CAT1 (4-trimethylammmonium-2,2,6,6-tetramethylpiperidine-1-oxyl-iodide) so as to form a suspension of multilamellar liposomes containing the probe. A suspension of these vesicles was then heated for 10 min. at 65 deg. C. The sample was washed four times with HEPES buffer and resuspended in buffer to a final volume of 2 ml. […] Various amounts of this solution (see Table 1, below) were combined with an aliquot (100 μl) of the liposome preparation, with buffer then being added to bring the final volume up to 0.2 ml. Samples were microfuged, and the supernatants transferred to ESR tubes. Spectra were taken at room temperature (23 deg. C.) to determine the concentration of the probe in the supernatant samples (see Perkins et al., Biochim. Biophys. Acta. 943:103 (1988)).
The data (see Table 1, below) indicates the percent of the probe found in the supernatant, and thereby, the percent leakage from the DSPC/Chol liposomes.

In vivo acute toxicity = experiment: In vivo acute toxicity; parameters: species or system Balb/c mice; settings: for Number of Animals Dead: tail vein
Experimental: Mice were also injected with saline and with empty liposomes.

Aspergillus fumigatus = experiment: Treatment of Aspergillus fumigatus infections in mice; type: in vivo, Balb/c mice; settings: 2 mg/kg, given six hours after 2×10^7 A. fumigatus spores; 15-day period
Text: FIG. 14. Therapeutic Efficacy of Free and Liposomal Indolicidin Against Aspergillus Infections in Mice. […] The animals' survival was monitored over a period of fifteen days. Percent survival (vertical axis) is plotted against time in days (horizontal axis).
Male Balb/c mice were each injected with 2×10^7 Aspergillus fumigatus spores by injection in the tail vein. After six hours, the mice were randomly divided into five groups of 10 mice each. […] The animals' survival was monitored over a 15-day period.

[2] = Right angle light scattering of aqueous indolicidin; type: physicochemical; settings: 10 mM HEPES, 150 mM NaCl, pH 7.5; light scattering 500 nm, 90 degrees
Experimental: FIG. 1. Right Angle Light Scattering of Aqueous Indolicidin. […] Samples were placed in fluorescence cuvettes and the scattering of light at 500 nm wavelengths (excitation wavelength) was measured in the fluorimeter at an angle of 90 degrees.
Samples were placed in fluorescence cuvettes and light scattering at 500 nm ([…] in the fluorimeter, at a 90 degree angle.

[3] = Leakage of CAT1 probe from DSPC/Chol/DDAB liposomes (ESR)
Experimental: A solution of DSPC (51.6 mg), cholesterol (20.2 mg) and dimethyldioctadecyl ammonium bromide (DDAB; 8.23 mg) was dried in a round-bottom flask. The lipids were rehydrated with buffer (10 mM HEPES, 150 mM NaCl) containing 0.5 mM of the probe CAT1 so as to form a suspension of multilamellar liposomes. The suspension was heated at 65 deg. C. for 10 min and then washed twice in 10 ml of the HEPES buffer, with the final pellet comprising DSPC/Chol/DDAB multilamellar liposomes containing CAT1, being resuspended in HEPES buffer to a final volume of 2 ml. A standard phosphate assay (see Chen et al., Anal. Chem. 28:1956 (1956)) was performed to determine the amount of lipid remaining (34.12 mg).
Various amounts of this solution (see Table 2, below) were combined with an aliquot (100 μl) of the liposome suspension, the final volume of the samples being brought up to 0.2 ml with HEPES buffer. These samples were centrifuged, and aliquots of the supernatants were taken for ESR spectra determination (23 deg. C.) to measure probe leakage.

Compound: HNP-2: human neutrophil protein 2, a prototypical mammalian defensin (CYCRIPACIAGERRYGTCIYQGRLWAFCC; ends and bridges not checked; cysteine pairing not given here; UniProt P59665 66-94, looked up)
- protein kinase C activity (protein kinase C): inhibited

Compound: CC[C@H](C)[C@H](N)C(=O)N[C@@H](CC(C)C)C(=O)N1CCC[C@H]1C(=O)N[C@@H](Cc1c[nH]c2ccccc12)C(=O)N[C@@H](CCCCN)C(=O)N[C@@H](Cc1c[nH]c2ccccc12)C(=O)N1CCC[C@H]1C(=O)N[C@@H](Cc1c[nH]c2ccccc12)C(=O)N[C@@H](Cc1c[nH]c2ccccc12)C(=O)N1CCC[C@H]1C(=O)N[C@@H](Cc1c[nH]c2ccccc12)C(=O)N[C@@H](CCCNC(=N)N)C(=O)N[C@@H](CCCNC(=N)N)C(N)=O [indolicidin]
- % Leakage of Probe ([1]; 0.42 mole % indolicidin): 1.75%
- % Probe in Supernatant ([1]; 0.42 mole % indolicidin (3.20 μl stock)): 6.14%
- % Leakage of Probe ([1]; 0.82 mole % indolicidin): 1.75%
- % Probe in Supernatant ([1]; 0.82 mole % indolicidin (6.30 μl stock)): 6.14%
- % Leakage of Probe ([1]; 1.61 mole % indolicidin): 0.87%
- % Probe in Supernatant ([1]; 1.61 mole % indolicidin (12.50 μl stock)): 5.26%
- % Leakage of Probe ([1]; 3.16 mole % indolicidin): 1.75%
- % Probe in Supernatant ([1]; 3.16 mole % indolicidin (25.00 μl stock)): 6.14%
- % Leakage of Probe ([1]; 6.16 mole % indolicidin): 2.63%
- % Probe in Supernatant ([1]; 6.16 mole % indolicidin (50.00 μl stock)): 7.02%
- % Leakage of Probe ([1]; 8.93 mole % indolicidin): 1.75%
- % Probe in Supernatant ([1]; 8.93 mole % indolicidin (75.00 μl stock)): 6.14%
- effect of increasing indolicidin concentration on probe leakage ([1]; DSPC/Chol liposomes, 0.42-8.93 mole % indolicidin): did not significantly increase probe leakage
- Number of Animals Dead (In vivo acute toxicity; free indolicidin dose 0.4 mg/kg): 0/5
- Number of Animals Dead (In vivo acute toxicity; free indolicidin dose 1.2 mg/kg): 1/5
- Number of Animals Dead (In vivo acute toxicity; free indolicidin dose 4.0 mg/kg): 3/5
- Number of Animals Dead (In vivo acute toxicity; free indolicidin dose 12.0 mg/kg): 0/5
- LD50 (In vivo acute toxicity; male Balb/c mice, tail vein injection): 3 mg/kg
- survival times of infected mice (Aspergillus fumigatus): slight increase in survival times
- concentration at which indolicidin self-associates in solution [2]: ≥ 30000 ng/mL
- % Probe in Supernatant ([3]; 0.48 mole % indolicidin (3.20 μl stock), CAT1, 23 deg. C): 8.00%
- % Probe in Supernatant ([3]; 0.93 mole % indolicidin (6.30 μl stock)): 8.00%
- % Probe in Supernatant ([3]; 1.84 mole % indolicidin (12.50 μl stock)): 9.78%
- % Probe in Supernatant ([3]; 3.61 mole % indolicidin (25.00 μl stock)): 10.67%
- % Probe in Supernatant ([3]; 6.99 mole % indolicidin (50.00 μl stock)): 9.78%
- % Probe in Supernatant ([3]; 10.09 mole % indolicidin (75.00 μl stock), corrected for any liposomes in the supernatant): 0%
- % Probe in Supernatant ([3]; 13.04 mole % indolicidin (100.00 μl stock), corrected for any liposomes in the supernatant): 0%

Compound: HNP-1: human neutrophil protein 1, a prototypical mammalian defensin
- protein kinase C activity (protein kinase C): inhibited

Compound: HNP-3: human neutrophil protein 3, a prototypical mammalian defensin
- protein kinase C activity (protein kinase C): inhibited
